Measured values: patent publication US6110955A, “Metabolically stabilized oxyalkylene esters and uses thereof” (Beacon Laboratories, Inc., priority 1997, dated 2000)
Entries after “also recorded” stand apart in the source; their conditions may differ.

What was measured:
[1] = tested on: primary and immortalized cell lines; settings: cited from earlier work
LOX IMVI = experiment: Inhibition of cancer cell growth, sulforhodamine B (SRB) method; assay type: cell-based; settings: Homo sapiens
Experimental: (§1) Inhibition of cancer cell growth was measured by the sulforhodamine B (SRB) method as described by Monks et al., J. Nat. Canc. Inst., (1991), 83: 757-766, incorporated herein in its entirety. The SRB assay is recognized by the National Institute for Cancer (NCI) as a reliable screen for anticancer drugs and is used by the NCI for this purpose. […] (FIGS. 3A-3D).

OVCAR-5 = experiment: as above; assay type: cell-based; settings: Homo sapiens
Experimental: as §1

MCF7 = experiment: as above; assay type: cell-based; settings: Homo sapiens
Experimental: as §1

CFPAC = experiment: as above; assay type: cell-based; settings: Homo sapiens
Experimental: as §1

[2] = tested on: human pancreatic, ovarian, breast carcinoma and melanoma cell lines; experiment: Inhibition of cancer cell growth, SRB method (summary over cell lines); assay type: cell-based; settings: compared with AB
Experimental: as §1

[3] = tested on: human neuroblastoma cell lines; experiment: Clonogenicity across the neuroblastoma cell lines (summary); assay type: cell-based
Experimental: (§2) Inhibition of cancer cell growth in agar culture--clonogenicity was tested using cell lines as follows:
(§3) Cells were harvested, washed in complete media, and counted.
(§4) After overnight culture, AB or α-methyl-4-(2-methylpropyl)-benzeneacetyloxymethyl butyrate was added at the indicated concentration. The control cells received media alone.

[4] = In vitro stability in human blood; assay type: in vitro ADME; settings: whole human blood, radiolabelled, read-out: calculated half time
Experimental: Radiolabelled Compound 1 (5 μCi) was added to 1 mL of whole human blood and allowed to stand for various times. The samples were quenched with acetonitrile and prepared as previously described.

NBAS-5 = experiment: Clonogenicity in soft agar (growth inhibition); assay type: cell-based, human
Experimental: as §2, §3, §4

NGP = experiment: Clonogenicity in soft agar (growth inhibition); assay type: cell-based, human
Experimental: as §2, §3, §4

IMR-32 = experiment: Clonogenicity in soft agar (growth inhibition); assay type: cell-based, human
Experimental: as §2, §3, §4

NBL-W-N = experiment: Clonogenicity in soft agar (growth inhibition); assay type: cell-based, human
Experimental: as §2, §3, §4

SMS-KAN = experiment: Clonogenicity in soft agar (growth inhibition); assay type: cell-based, human
Experimental: as §2, §3, §4

SK-N-SH = experiment: Clonogenicity in soft agar (growth inhibition); assay type: cell-based, human
Experimental: as §2, §3, §4

SMS-KCN = experiment: Clonogenicity in soft agar (growth inhibition); assay type: cell-based, human
Experimental: as §2, §3, §4

NBL-S = experiment: Clonogenicity in soft agar (growth inhibition); assay type: cell-based, human
Experimental: as §2, §3, §4

LA1-5S = experiment: Clonogenicity in soft agar (growth inhibition); assay type: cell-based, human
Experimental: as §2, §3, §4

SK-N-MC = experiment: Clonogenicity in soft agar (growth inhibition); assay type: cell-based, human
Experimental: as §2, §3, §4

[5] = tested on: mitochondrial β-oxidation of fatty acids; settings: cited from earlier work
[6] = tested on: human colon carcinoma, leukemia and retinoblastoma cell lines; settings: in vitro; cited from earlier work
B16 melanoma = settings: cited from earlier work
nuclear deacetylase(s) = settings: cited from earlier work
cancer patients = settings: clinical trials; cited from earlier work

CCCC(=O)OCC(COC(=O)CCC)OC(=O)CCC [Tributyrin]
expression of a reporter gene [1]: enhance the expression of a reporter gene in primary and immortalized cell lines

CCCC(=O)OCOC(=O)C(C)c1ccc(CC(C)C)cc1 (stereo not drawn) [Compound 1, α-methyl-4-(2-methylpropyl)-benzeneacetyloxymethyl butyrate]
inhibition at 31.25 pM (LOX IMVI; dosage 0.03125 nM): 0%
inhibition at 62.5 pM (LOX IMVI; dosage 0.06250 nM): 0.1%
inhibition at 0.000125 µM (LOX IMVI; dosage 0.12500 nM): 1.5%
inhibition at 0.00025 µM (LOX IMVI; dosage 0.25000 nM): 0%
inhibition at 0.001 µM (LOX IMVI; dosage 1.00000 nM): 94.9%
inhibition at 0.002 µM (LOX IMVI; dosage 2.00000 nM): 96%
inhibition at 0.004 µM (LOX IMVI; dosage 4.00000 nM): 97.4%
inhibition at 31.25 pM (OVCAR-5; OVCAR-5, dosage 0.03125 nM): 0%
inhibition at 62.5 pM (OVCAR-5; OVCAR-5, dosage 0.06250 nM): 0.3%
inhibition at 0.000125 µM (OVCAR-5; OVCAR-5, dosage 0.12500 nM): 0.5%
inhibition at 0.00025 µM (OVCAR-5; OVCAR-5, dosage 0.25000 nM): 0%
inhibition at 0.0005 µM (OVCAR-5; OVCAR-5, dosage 0.50000 nM): 0.9%
inhibition at 0.001 µM (OVCAR-5; OVCAR-5, dosage 1.00000 nM): 39.7%
inhibition at 0.002 µM (OVCAR-5; OVCAR-5, dosage 2.00000 nM): 99.8%
inhibition at 0.004 µM (OVCAR-5; OVCAR-5, dosage 4.00000 nM): 95.1%
inhibition at 31.25 pM (MCF7; MCF7, dosage 0.03125 nM): 0%
inhibition at 62.5 pM (MCF7; MCF7, dosage 0.06250 nM): 0%
inhibition at 0.000125 µM (MCF7; MCF7, dosage 0.12500 nM): 0%
inhibition at 0.00025 µM (MCF7; MCF7, dosage 0.25000 nM): 1.1%
inhibition at 0.0005 µM (MCF7; MCF7, dosage 0.50000 nM): 57.8%
inhibition at 0.001 µM (MCF7; MCF7, dosage 1.00000 nM): 99.3%
inhibition at 0.002 µM (MCF7; MCF7, dosage 2.00000 nM): 98.9%
inhibition at 0.004 µM (MCF7; MCF7, dosage 4.00000 nM): 98.7%
inhibition at 31.25 pM (CFPAC; dosage 0.03125 nM): 0%
inhibition at 62.5 pM (CFPAC; dosage 0.06250 nM): 0.1%
inhibition at 0.000125 µM (CFPAC; dosage 0.12500 nM): 1.1%
inhibition at 0.00025 µM (CFPAC; dosage 0.25000 nM): 0%
inhibition at 0.0005 µM (CFPAC; dosage 0.50000 nM): 93.3%
inhibition at 0.001 µM (CFPAC; dosage 1.00000 nM): 94.9%
inhibition at 0.002 µM (CFPAC; dosage 2.00000 nM): 96%
inhibition at 0.004 µM (CFPAC; dosage 4.00000 nM): 97.4%
greater activity than that of AB [2]: at least 100 fold
inhibition of clonogenicity (in words) [3]: dose-dependent manner
sensitivity / potency relative to AB (in words) ([3]; compared with AB): mostly an order of magnitude more sensitive; also recorded: significantly more potent tumor cell clonogenicity inhibitor than AB
ratio between the IC50 of AB/Compound 1, "maiden" value ([3]; over the cell lines): 16
ratio between the IC50 of AB/Compound 1, range ([3]; over the cell lines): 7-63 fold
ratio between the IC90 of AB/Compound 1, "maiden" value ([3]; over the cell lines): 32
ratio between the IC90 of AB/Compound 1, range ([3]; over the cell lines): 7-434
half-life [4]: ~20.8 min
IC50 (NBAS-5; Homo sapiens, NBAS-5): 15 µM
IC90 (NBAS-5; Homo sapiens, NBAS-5): 30 µM
activity at 10 µM (NBAS-5; Homo sapiens, NBAS-5, 10 μM, read-out: clones relative to media-treated control cultures): 76 ± 7%
activity at 20 µM (NBAS-5; Homo sapiens, NBAS-5, 20 μM, read-out: clones relative to media-treated control cultures): 27 ± 15%
activity at 50 µM (NBAS-5; Homo sapiens, NBAS-5, 50 μM, read-out: clones relative to media-treated control cultures): 3%
activity at 100 µM (NBAS-5; Homo sapiens, NBAS-5, 100 μM, read-out: clones relative to media-treated control cultures): 0%
activity at 250 µM (NBAS-5; Homo sapiens, NBAS-5, 250 μM, read-out: clones relative to media-treated control cultures): 0%
AB/Compound 1 (IC50 ratio) (NBAS-5; NBAS-5): 55.53
AB/Compound 1 (IC90 ratio) (NBAS-5; NBAS-5): 434
AB/Compound 1 (IC50 ratio) (NGP): 67.9
AB/Compound 1 (IC90 ratio) (NGP): 18.46
IC50 (NGP; Homo sapiens): 15 µM
IC90 (NGP; Homo sapiens): 87 µM
IC50 (IMR-32; Homo sapiens, IMR-32): 15 µM
IC90 (IMR-32; Homo sapiens, IMR-32): 32 µM
activity at 10 µM (IMR-32; Homo sapiens, IMR-32, 10 μM, read-out: clones relative to media-treated control cultures): 71 ± 10%
activity at 20 µM (IMR-32; Homo sapiens, IMR-32, 20 μM, read-out: clones relative to media-treated control cultures): 46 ± 8%
activity at 50 µM (IMR-32; Homo sapiens, IMR-32, 50 μM, read-out: clones relative to media-treated control cultures): 3 ± 1%
activity at 100 µM (IMR-32; Homo sapiens, IMR-32, 100 μM, read-out: clones relative to media-treated control cultures): 0%
activity at 250 µM (IMR-32; Homo sapiens, IMR-32, 250 μM, read-out: clones relative to media-treated control cultures): 0%
AB/Compound 1 (IC50 ratio) (IMR-32; IMR-32): 59
AB/Compound 1 (IC90 ratio) (IMR-32; IMR-32): 111437
AB/Compound 1 (IC50 ratio) (NBL-W-N): 10.6
AB/Compound 1 (IC90 ratio) (NBL-W-N): 22.9
IC50 (NBL-W-N; Homo sapiens): 46 µM
IC90 (NBL-W-N; Homo sapiens): 134 µM
AB/Compound 1 (IC50 ratio) (SMS-KAN): 14.7
AB/Compound 1 (IC90 ratio) (SMS-KAN): 7.2
IC50 (SMS-KAN; Homo sapiens): 77 µM
IC90 (SMS-KAN; Homo sapiens): 289 µM
AB/Compound 1 (IC50 ratio) (SK-N-SH): 63.37
AB/Compound 1 (IC90 ratio) (SK-N-SH): 87
IC50 (SK-N-SH; Homo sapiens): 16 µM
IC90 (SK-N-SH; Homo sapiens): 39 µM
activity at 10 µM (SK-N-SH; Homo sapiens, 10 μM, read-out: clones relative to media-treated control cultures): 66%
activity at 20 µM (SK-N-SH; Homo sapiens, 20 μM, read-out: clones relative to media-treated control cultures): 50%
activity at 50 µM (SK-N-SH; Homo sapiens, 50 μM, read-out: clones relative to media-treated control cultures): 5%
activity at 100 µM (SK-N-SH; Homo sapiens, 100 μM, read-out: clones relative to media-treated control cultures): 1%
activity at 250 µM (SK-N-SH; Homo sapiens, 250 μM, read-out: clones relative to media-treated control cultures): 0%
AB/Compound 1 (IC50 ratio) (SMS-KCN): 15.86
IC50 (SMS-KCN; Homo sapiens): 118 µM
AB/Compound 1 (IC50 ratio) (NBL-S): 29.2
AB/Compound 1 (IC90 ratio) (NBL-S): 32.8
IC50 (NBL-S; Homo sapiens): 24 µM
IC90 (NBL-S; Homo sapiens): 61 µM
AB/Compound 1 (IC50 ratio) (LA1-5S): 56
AB/Compound 1 (IC90 ratio) (LA1-5S): 31.8
IC50 (LA1-5S; Homo sapiens): 29 µM
IC90 (LA1-5S; Homo sapiens): 84 µM
AB/Compound 1 (IC50 ratio) (SK-N-MC): 9
AB/Compound 1 (IC90 ratio) (SK-N-MC): 887
IC50 (SK-N-MC; Homo sapiens): 24 µM
IC90 (SK-N-MC; Homo sapiens): 148 µM

CCCC(CCC)C(=O)O [valproic acid]
mitochondrial β-oxidation of fatty acids [5]: decrease mitochondrial β-oxidation of fatty acids

CN1c2ccccc2C(NCCCCCCC(=O)O)c2ccc(Cl)cc2S1(=O)=O (stereo not shown) [tianeptine]
mitochondrial β-oxidation of fatty acids [5]: decrease mitochondrial β-oxidation of fatty acids

CCCC(=O)[O-].[Na+] [SB, sodium butyrate]
apoptosis [6]: produce apoptosis in vitro in human colon carcinoma, leukemia and retinoblastoma cell lines

O=C(O)CCCCCCNC1c2ccccc2CCc2ccccc21 [aminetepine]
mitochondrial β-oxidation of fatty acids [5]: decrease mitochondrial β-oxidation of fatty acids

CCCC(=O)O [BA, Butyric acid]
oncogene expression (B16 melanoma): decrease in the expression of c-myc and H-ras oncogenes in B16 melanoma
effect on nuclear deacetylase(s) (nuclear deacetylase(s)): inhibition of nuclear deacetylase(s), resulting in hyperacetylation of histones H3 and H4
efficacy in cancer patients (cancer patients): minimal or transient efficacy

CC(C)Cc1ccc(C(C)C(=O)O)cc1 (stereo not shown) [ibuprofen]
mitochondrial β-oxidation of fatty acids [5]: decrease mitochondrial β-oxidation of fatty acids

CN(C)C1C(=O)C(C(N)=O)=C(O)C2(O)C(=O)C3=C(O)c4c(O)cccc4C(C)(O)C3CC12 (stereo not shown) [tetracycline]
mitochondrial β-oxidation of fatty acids [5]: decrease mitochondrial β-oxidation of fatty acids

O=C(O)c1ccccc1O [salicylic acid]
mitochondrial β-oxidation of fatty acids [5]: decrease mitochondrial β-oxidation of fatty acids
